Reference: patent US5981704A, “Kainate-binding, human CNS receptors of the EAA2 family” (Allelix Biopharmaceutical, priority 1997, dated 1999)

Legend:
human EAA2a receptor [1] = target: T1, human EAA2a receptor (Homo sapiens, UniProt Q16478); assay: [3H]-kainate binding assay (Scatchard analysis and displacement) on membranes of transfected COS-1 cells; conditions: for rank order of potency in displacement of [3H]-labelled kainate binding: FIG. 6
T1 construct: This modification permitted the full length cDNA insert to be released as a 3.7 kb NotI/NotI fragment; expressed in transfected cells; host or cells: COS-1 (ATCC CRL 1650), transient, plasmid pcDNA1/humEAA2a; membranes
T1 sequence (Q16478 15-980): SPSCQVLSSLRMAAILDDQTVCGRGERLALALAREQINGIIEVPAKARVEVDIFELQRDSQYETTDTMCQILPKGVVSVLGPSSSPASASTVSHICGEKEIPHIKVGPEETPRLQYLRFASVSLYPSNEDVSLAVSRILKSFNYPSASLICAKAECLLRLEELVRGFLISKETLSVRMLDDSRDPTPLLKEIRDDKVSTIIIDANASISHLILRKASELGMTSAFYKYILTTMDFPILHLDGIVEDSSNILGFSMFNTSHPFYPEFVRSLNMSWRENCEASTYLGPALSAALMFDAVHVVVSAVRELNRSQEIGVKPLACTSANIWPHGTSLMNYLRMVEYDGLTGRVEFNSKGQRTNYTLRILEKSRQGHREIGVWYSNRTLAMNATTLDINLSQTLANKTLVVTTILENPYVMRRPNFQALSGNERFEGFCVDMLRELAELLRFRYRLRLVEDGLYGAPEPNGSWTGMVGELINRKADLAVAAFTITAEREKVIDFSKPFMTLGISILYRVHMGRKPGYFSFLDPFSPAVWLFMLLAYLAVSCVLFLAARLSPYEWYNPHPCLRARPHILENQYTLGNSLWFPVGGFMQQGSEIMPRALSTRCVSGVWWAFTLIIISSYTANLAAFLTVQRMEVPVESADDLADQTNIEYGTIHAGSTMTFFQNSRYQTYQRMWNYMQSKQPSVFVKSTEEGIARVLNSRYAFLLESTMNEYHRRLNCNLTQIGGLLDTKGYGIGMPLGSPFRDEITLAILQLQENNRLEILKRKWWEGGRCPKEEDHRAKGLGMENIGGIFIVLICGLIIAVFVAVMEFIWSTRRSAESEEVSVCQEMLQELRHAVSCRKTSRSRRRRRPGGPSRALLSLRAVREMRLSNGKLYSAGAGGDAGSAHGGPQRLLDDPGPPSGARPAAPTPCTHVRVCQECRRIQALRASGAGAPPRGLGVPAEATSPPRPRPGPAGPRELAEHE
Procedure: (§1) Transfected cells in the frozen state were resuspended in ice-cold distilled water using a hand homogenizer and centrifuged for 20 minutes at 50,000 g. The supernatant was discarded and the membrane pellet stored frozen at -70° C.
(§2) COS cell membrane pellets were suspended in ice cold 50 mM Tris-HCl (pH 7.55, 5C) and placed inside Spectrapor 7 (EDTA-treated, sulfur-fee) dialysis tubing. The suspension was placed in 4 liters of ice cold 50 mM Tris-HCl (pH 7.55, 5C) and dialyzed for 16-24 hours at 5C in order to remove endogenous glutamate that would compete for binding. The tissue suspension was recovered from the tubing along with a small volume of buffer used to rinse the tubing. This resultant membrane preparation was used as tissue source for binding experiments described below. Proteins were determined using the Pierce Reagent with BSA as standard.
Binding assays were then performed, using an amount of COS-derived membrane equivalent to from 25-100 ug as judged by protein determination and selected radiolabelled ligand. In particular, glutamate binding assays entailed formation of an incubation mixture consisting of 25-100 ug of tissue protein, and [3.4-3H]L-glutamic acid (47.3 Ci/mmole, 10 nM final) in 50 mM Tris-HCl (pH 7.55, 5C) in 1 ml final volume. Non-specific binding was in the presence of 1 mM L-glutamate. Samples were incubated on ice for 60 minutes in plastic minivials. Bound and free ligand were separated by centrifugation for 10 minutes at 50,000 g (4° C.). Tissue pellets were washed superficially with 2×6 ml of ice cold incubation buffer. Pellets were solubilized and counted in 5 ml of Beckman Ready Protein Scintillation cocktail.
For kainate binding assays, incubation mixtures consisted of 25-100 μg tissue protein and [vinylidene-3H] kainic acid (58 Ci/mmole, 5 nM final) in the cold incubation buffer, 1 ml final volume. Non-specific binding was in the presence of 1 mM L-glutamate. Samples were incubated as for the glutamate binding assays, and bound and free ligand were separated by rapid filtration using a Brandel cell harvester and GF/B filters pro-soaked in ice-cold 0.3% polyethyleneimine. Filters were washed twice in 6 ml of the cold incubation buffer, then placed in scintillation vials with 5 ml of Beckman Ready-Safe scintillation cocktail for counting.

human EAA2a receptor [2] = target: T1, human EAA2a receptor; assay: [3H]-glutamate binding assay on membranes of transfected COS-1 cells; conditions: [3H]-glutamate at 10 nM; non-specific binding with 1 mM L-glutamate
Procedure: as §1, §2
Binding assays were then performed, using an amount of COS-derived membrane equivalent to from 25-100 ug as judged by protein determination and selected radiolabelled ligand. In particular, glutamate binding assays entailed formation of an incubation mixture consisting of 25-100 ug of tissue protein, and [3.4-3H]L-glutamic acid (47.3 Ci/mmole, 10 nM final) in 50 mM Tris-HCl (pH 7.55, 5C) in 1 ml final volume. […] Pellets were solubilized and counted in 5 ml of Beckman Ready Protein Scintillation cocktail.

Row | Compound | rank order of potency in displacement of [3H]-labelled kainate binding (human EAA2a receptor [1]) | also measured
1 | N[C@@]1(C(=O)O)CC[C@@H](C(=O)O)C1 [1S,3R-ACPD] | – | displacement of kainate (human EAA2a receptor [1]; concentrations up to 100 uM): No displacement
2 | N#Cc1cc2[nH]c(=O)c(=O)[nH]c2cc1[N+](=O)[O-] [CNQX] | kainate>domoate>quisqualate>glutamate>DNQX>dihydrokainate>CNQX>AMPA | –
3 | O=c1[nH]c2cc([N+](=O)[O-])c([N+](=O)[O-])cc2[nH]c1=O [DNQX] | kainate>domoate>quisqualate>glutamate>DNQX>dihydrokainate>CNQX>AMPA | –
4 | CC(C)[C@H]1CN[C@H](C(=O)O)[C@H]1CC(=O)O [dihydrokainate] | kainate>domoate>quisqualate>glutamate>DNQX>dihydrokainate>CNQX>AMPA | –
5 | C/C(=C/C=C/[C@@H](C)C(=O)O)[C@H]1CN[C@H](C(=O)O)[C@H]1CC(=O)O [domoate] | kainate>domoate>quisqualate>glutamate>DNQX>dihydrokainate>CNQX>AMPA | –
6 | N[C@@H](CCC(=O)O)C(=O)O [glutamate, L-glutamic acid] | kainate>domoate>quisqualate>glutamate>DNQX>dihydrokainate>CNQX>AMPA | specific binding of labelled ligand (human EAA2a receptor [2]): specific
7 | C=C(C)[C@H]1CN[C@H](C(=O)O)[C@H]1CC(=O)O [kainate, kainic acid] | kainate>domoate>quisqualate>glutamate>DNQX>dihydrokainate>CNQX>AMPA | Kd (human EAA2a receptor [1]): 2.9 nM; maximum binding (Bmax) (human EAA2a receptor [1]; Scatchard analysis of [3H]-kainate binding): 691 fmol/mg protein; specific binding of labelled ligand (human EAA2a receptor [1]; [3H]-kainate at 5 nM, non-specific binding with 1 mM L-glutamate): specific; kainate binding affinity (in words) (human EAA2a receptor [1]; nanomolar range): high affinity
8 | N[C@@H](Cn1oc(=O)[nH]c1=O)C(=O)O [quisqualate] | kainate>domoate>quisqualate>glutamate>DNQX>dihydrokainate>CNQX>AMPA | –
